What all share (assay type): functional, cell-based
Experiment [1] concerns SiHa. Briefly: Cytotoxicity against human SiHa cells.
Experiment [2] has as its system C-33-A. Kind of experiment: Cytotoxicity against human C-33-A cells.
The test system of experiment [3] is SiHa. Briefly: Induction of autophagy in human SiHa cells assessed as […] in GFP-LC3 level by fluorescence microscopy.
Experiment [4] deals with C-33-A. Kind of experiment: Induction of autophagy in human C-33-A cells assessed as decrease in p62 expression at 30 uM incubated for 42 hrs by microscopic analysis.
Experiment [5] deals with C-33-A. Briefly: Induction of autophagy in human C-33-A cells assessed as increase in LC3I to LC3II conversion at 30 uM incubated for 42 hrs by microscopic analysis.
Experiment [6] concerns SiHa. Kind of experiment: Induction of autophagy in human SiHa cells assessed as increase in LC3I to LC3II conversion at 30 uM measured upto 42 hrs by microscopic analysis. Particulars: time hrs <=42.
For experiment [7], the system named is SiHa. Briefly: Induction of autophagy in human SiHa cells assessed as decrease in p62 expression at 30 uM measured upto 42 hrs by microscopic analysis. As to conditions: time hrs <=42.
Experiment [8] relates to SiHa. Kind of experiment: Induction of autophagy in human SiHa cells assessed as vacuole formation incubated for 24 hrs by microscopic analysis.

Calls of active or inactive are those of the source. No cut-off for these calls is given here.

Broadly, the IC50 is the concentration needed to halve the response being measured. For the molecule `Cc1[nH]c2ccccc2c1C(c1ccccc1)c1cc2cc(C(C)(C)C)cc(C(C)(C)C)c2o1` (stereo not given), the IC50 with SiHa [1] was found to be 72 µM.
On to `c1ccc(C(c2cc3ccccc3o2)c2c[nH]c3ccccc23)cc1` (stereo not given), for which, in the experiment on SiHa [1], the IC50 stood at 71.1 µM.
With `Cc1[nH]c2ccccc2c1C(c1ccccc1)c1cc2ccccc2o1` (stereo not given), the IC50 in the experiment with SiHa [1] came out at 56.5 µM.
Turning to `COc1ccc(C(c2cc3ccccc3o2)c2c[nH]c3ccccc23)cc1` (stereo not given), the IC50 in the experiment on SiHa [1] is more than 100 µM.
Take `Cc1[nH]c2ccccc2c1C(c1ccccc1)c1cc2cc(Cl)ccc2o1` (stereo not given): the results for the IC50 in the experiment with SiHa [1] and with C-33-A [2] were 47.5 µM and 38.7 µM, respectively.
In the experiment with SiHa [1], `COc1ccc2oc(C(c3ccccc3)c3c(C)[nH]c4ccccc34)cc2c1` (stereo not given) showed a half-inhibitory concentration (IC50) of more than 100 µM.
With `Cc1c(C(c2ccccc2)c2cc3ccccc3o2)[nH]c2ccccc12` (stereo not given), the IC50 in the experiment with SiHa [1] is more than 100 µM.
Turning to `Cc1[nH]c2ccccc2c1C(c1ccc(Cl)cc1)c1cc2cc(C(C)(C)C)cc(C(C)(C)C)c2o1` (stereo not given), the IC50 in the experiment with SiHa [1] came to 35.9 µM; with C-33-A [2] it was 31.2 µM. Besides, the result with SiHa [3], in the experiment with C-33-A [4], in the experiment with C-33-A [5], with SiHa [6], in the experiment on SiHa [7] and in the experiment on SiHa [8] was Active.
Consider `Cc1c(C(c2ccc(Cl)cc2)c2cc3ccccc3o2)[nH]c2ccccc12` (stereo not given), for which, in the experiment on SiHa [1], the IC50 amounted to 72.5 µM.
On to `COc1ccc(C(c2cc3ccccc3o2)c2[nH]c3ccccc3c2C)cc1` (stereo not given), for which, in the experiment on SiHa [1], the IC50 was more than 100 µM.
The molecule `COc1ccc2oc(C(c3ccccc3)c3c[nH]c4ccccc34)cc2c1` (stereo not given) came in with an IC50 in the experiment on SiHa [1] of more than 100 µM.
Still for that read-out and setting: the value for `Cc1c(C(c2ccccc2)c2cc3cc(Cl)ccc3o2)[nH]c2ccccc12` (stereo not given) was 77.9 µM; that for `COc1ccc2oc(C(c3ccccc3)c3[nH]c4ccccc4c3C)cc2c1` (stereo not given) was more than 100 µM.
With `CC(C)(C)c1cc(C(C)(C)C)c2oc(C(c3ccc(Cl)cc3)c3c[nH]c4ccccc34)cc2c1` (stereo not given), the IC50 with SiHa [1] is 49.8 µM; in the experiment on C-33-A [2] it was 34.2 µM.
With `CC(C)(C)c1cc(C(C)(C)C)c2oc(C(c3ccc(Cl)cc3)c3c[nH]c4ccc([N+](=O)[O-])cc34)cc2c1` (stereo not given), the figures for the IC50 in the experiment with SiHa [1] and in the experiment on C-33-A [2] were 36.9 µM and 29.4 µM, respectively. The outcome in the experiment with SiHa [3], with C-33-A [4], with C-33-A [5], in the experiment on SiHa [6], in the experiment with SiHa [7] and in the experiment on SiHa [8] was Active.
In the experiment with SiHa [1], `CC(C)(C)c1cc(C(C)(C)C)c2oc(C(c3ccccc3)c3c[nH]c4ccc([N+](=O)[O-])cc34)cc2c1` (stereo not given) showed an IC50 of 48.2 µM. That is a double-digit micromolar value.
The same measure, in the same setting: the value for `O=[N+]([O-])c1ccc2[nH]cc(C(c3ccccc3)c3cc4cc(Cl)ccc4o3)c2c1` (stereo not given) was more than 100 µM.
On to `O=[N+]([O-])c1ccc2[nH]cc(C(c3ccccc3)c3cc4ccccc4o3)c2c1` (stereo not given), for which the IC50 with SiHa [1] was 40.4 µM; with C-33-A [2], 35.2 µM.
Regarding `Cc1c(C(c2ccccc2)c2cc3cc(C(C)(C)C)cc(C(C)(C)C)c3o2)[nH]c2ccccc12` (stereo not given), the IC50 with SiHa [1] is more than 100 µM.
Still for that read-out and setting: the figure for `COc1ccc(C(c2cc3ccccc3o2)c2c(C)[nH]c3ccccc23)cc1` (stereo not given) is more than 100 µM; for `CC(C)(C)c1cc(C(C)(C)C)c2oc(C(c3ccccc3)c3c[nH]c4ccccc34)cc2c1` (stereo not given) it is 61.6 µM.
Turning to `Clc1ccc2oc(C(c3ccccc3)c3c[nH]c4ccccc34)cc2c1` (stereo not given), the IC50 in the experiment with SiHa [1] stood at 58 µM.
Same read-out and setting: the value for `COc1ccc(C(c2cc3cc(C(C)(C)C)cc(C(C)(C)C)c3o2)c2c[nH]c3ccc([N+](=O)[O-])cc23)cc1` (stereo not given) was more than 100 µM.

These data come from ChEMBL document CHEMBL4673238, “Discovery of 3-(benzofuran-2-ylmethyl)-1H-indole derivatives as potential autophagy inducers in cervical cancer cells” (Bioorg Med Chem Lett, 2020).
